Results reported in paper PMC11952222, “Development and comparison of single FLT3-inhibitors to dual FLT3/TAF1-inhibitors as an anti-leukemic approach” (PLOS One, 2025).
“And” between values parts separate entries of the source, which are not always exact repeats. Equal entries are not always repeated. Where two headings read alike, the source gives them in different places.

Assays:
[1] = biological target: T1, FLT3_autoinhibited (Homo sapiens, UniProt P36888); experiment: Eurofins/DiscoverX cell free kinase assay, percent control; type: binding; settings: for per_control_1000nM FLT3_autoinhibited: 1000 nM compound; for per_control_10000nM FLT3_autoinhibited: 10000 nM compound
T1 construct: purchased Eurofins/DiscoverX
T1 sequence (P36888 564-993 limits assumed): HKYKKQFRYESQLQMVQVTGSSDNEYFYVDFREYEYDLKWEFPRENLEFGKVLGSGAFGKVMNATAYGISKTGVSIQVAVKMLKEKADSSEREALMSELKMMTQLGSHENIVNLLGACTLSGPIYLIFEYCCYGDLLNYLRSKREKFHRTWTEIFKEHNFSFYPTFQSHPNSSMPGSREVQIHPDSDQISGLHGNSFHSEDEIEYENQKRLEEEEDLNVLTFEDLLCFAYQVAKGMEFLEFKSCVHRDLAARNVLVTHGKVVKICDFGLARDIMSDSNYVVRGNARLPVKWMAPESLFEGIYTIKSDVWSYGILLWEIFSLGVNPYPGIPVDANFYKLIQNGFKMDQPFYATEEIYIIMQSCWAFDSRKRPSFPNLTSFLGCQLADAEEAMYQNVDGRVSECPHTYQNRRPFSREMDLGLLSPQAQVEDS
Description: (§1) The 3i-compounds underwent activity testing against a panel of 32 bromodomains using the Eurofins/DiscoverX bromoMAX assay, with specific focus on TAF1(2) bromodomain assessed by the KdELECT assay. In a similar manner, kinase activity was evaluated using a panel of 97 kinase proteins using the Eurofins/DiscoverX scanELECT and KdELECT assays, with specific focus on FLT3 protein. An 11-point 3-fold serial dilution of each test compound was prepared in 100% DMSO at 100x final test concentration and subsequently diluted to final concentration (DMSO 1%). […] Percent control was calculated using the following formula: ((test compound signal – positive control signal)/ (negative control signal – positive control signal)) × 100.
(§2) Fig 2 Results of 3i-compound series at concentrations of 1 µM and 10 µM in a cell free Eurofins/DiscoverX assay for kinase and bromodomain proteins. (A) Single-targeted compounds with tyrosine kinase activity but without bromodomain activity. (B) Dual-targeted compounds with both tyrosine kinase and bromodomain activity.

[2] = biological target: T2, FLT3(D835V) (Homo sapiens, UniProt P36888, D835V); experiment: as above; type: binding; settings: for per_control_1000nM FLT3(D835V): 1000 nM compound; for per_control_10000nM FLT3(D835V): 10000 nM compound
T2 construct: purchased Eurofins/DiscoverX
T2 sequence (P36888 27-993 D835V): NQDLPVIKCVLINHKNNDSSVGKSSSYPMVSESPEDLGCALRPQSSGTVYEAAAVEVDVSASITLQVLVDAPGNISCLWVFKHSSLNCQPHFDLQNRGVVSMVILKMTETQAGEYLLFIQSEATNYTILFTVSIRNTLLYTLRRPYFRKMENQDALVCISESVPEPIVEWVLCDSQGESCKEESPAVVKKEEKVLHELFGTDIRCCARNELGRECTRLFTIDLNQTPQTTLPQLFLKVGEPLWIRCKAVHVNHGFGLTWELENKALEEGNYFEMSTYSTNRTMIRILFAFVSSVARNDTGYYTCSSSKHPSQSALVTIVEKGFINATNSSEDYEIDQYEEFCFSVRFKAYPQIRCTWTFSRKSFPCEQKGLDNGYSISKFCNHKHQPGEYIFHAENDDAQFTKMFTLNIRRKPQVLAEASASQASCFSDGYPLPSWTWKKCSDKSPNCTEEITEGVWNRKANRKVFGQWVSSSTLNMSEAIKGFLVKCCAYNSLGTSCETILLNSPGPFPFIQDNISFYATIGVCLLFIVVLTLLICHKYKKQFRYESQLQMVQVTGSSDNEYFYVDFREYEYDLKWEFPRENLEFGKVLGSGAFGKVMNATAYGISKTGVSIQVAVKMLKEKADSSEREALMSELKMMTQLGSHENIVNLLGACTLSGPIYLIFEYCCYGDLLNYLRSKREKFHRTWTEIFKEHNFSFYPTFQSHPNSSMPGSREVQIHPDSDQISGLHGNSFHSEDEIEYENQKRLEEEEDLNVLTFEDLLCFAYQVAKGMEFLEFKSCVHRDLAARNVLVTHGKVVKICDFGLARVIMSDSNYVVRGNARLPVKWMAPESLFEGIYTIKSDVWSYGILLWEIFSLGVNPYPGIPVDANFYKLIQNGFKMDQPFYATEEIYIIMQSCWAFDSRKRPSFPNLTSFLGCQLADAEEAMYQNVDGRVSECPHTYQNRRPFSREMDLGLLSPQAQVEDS
Description: as §1, §2

[3] = tested on: MOLM13 cells; experiment: Cell viability, CellTiter Glo, MOLM13; type: cell-based; settings: for IC50: 72h
Description: (§3) Drug sensitivity and resistance testing in MOLM13, DU4475, HDQP1, and IGROV1 cells was conducted at the Finnish Institute for Molecular Medicine (FIMM), University of Helsinki. In brief, the effects of compounds on cell viability and cell death were quantified with Cell-Titer Glo (Promega) and CellTox Green (Promega), respectively. Compounds or vehicle control were included in cell culture medium at described concentrations for 72h using an automated liquid dispenser in 384-well format. For KASUMI-1 experiments, cells were grown in 96-well plates and similarly incubated with compounds at indicated concentrations for 72h in RPMI + 10% FCS + Gentamicin, followed by lysis and quantification of cell viability with Cell-Titer Glo (Promega).
(§4) Raw values from viability and toxicity assays were normalized to DMSO and plotted to heat maps in R using pheatmap (RRID:SCR_016418). Dose-response curves were generated using the drc package in R [40]. In brief, nonlinear modelling was performed to calculate IC50 values for each compound where possible and resulting curves from drc and experimental values were plotted using ggplot2 (RRID:SCR_014601).

[4] = tested on: DU4475 cells; experiment: Cell toxicity, CellTox Green, DU4475; type: cell-based; settings: CellTox Green relative to DMSO
Description: as §3, §4

[5] = biological target: T3, c-KIT (Homo sapiens, UniProt P10721); experiment: Eurofins/DiscoverX kinase assay, c-KIT IC50; type: binding
T3 construct: purchased Eurofins/DiscoverX
Description: as §1

[6] = biological target: T4, PDGFRB (Homo sapiens, UniProt P09619); experiment: Eurofins/DiscoverX kinase assay, PDGFRB IC50; type: binding
T4 construct: purchased Eurofins/DiscoverX
Description: as §1

[7] = tested on: KASUMI-1 cells; experiment: Cell viability, CellTiter Glo, KASUMI-1; type: cell-based; settings: compared to dual FLT3/TAF1(2) compounds 3i-1103, 3i-1246, 3i-1248
Description: as §3, §4

[8] = one independent experiment per value, read-out: MOLM13 IC50, individual dose-response curve (CellTiter Glo)
[9] = Homo sapiens, MOLM-13, 72 h, mean of n = 3 independent experiments, read-out: MOLM13 IC50 (CellTiter Glo)

T3 sequence (P10721 26-976): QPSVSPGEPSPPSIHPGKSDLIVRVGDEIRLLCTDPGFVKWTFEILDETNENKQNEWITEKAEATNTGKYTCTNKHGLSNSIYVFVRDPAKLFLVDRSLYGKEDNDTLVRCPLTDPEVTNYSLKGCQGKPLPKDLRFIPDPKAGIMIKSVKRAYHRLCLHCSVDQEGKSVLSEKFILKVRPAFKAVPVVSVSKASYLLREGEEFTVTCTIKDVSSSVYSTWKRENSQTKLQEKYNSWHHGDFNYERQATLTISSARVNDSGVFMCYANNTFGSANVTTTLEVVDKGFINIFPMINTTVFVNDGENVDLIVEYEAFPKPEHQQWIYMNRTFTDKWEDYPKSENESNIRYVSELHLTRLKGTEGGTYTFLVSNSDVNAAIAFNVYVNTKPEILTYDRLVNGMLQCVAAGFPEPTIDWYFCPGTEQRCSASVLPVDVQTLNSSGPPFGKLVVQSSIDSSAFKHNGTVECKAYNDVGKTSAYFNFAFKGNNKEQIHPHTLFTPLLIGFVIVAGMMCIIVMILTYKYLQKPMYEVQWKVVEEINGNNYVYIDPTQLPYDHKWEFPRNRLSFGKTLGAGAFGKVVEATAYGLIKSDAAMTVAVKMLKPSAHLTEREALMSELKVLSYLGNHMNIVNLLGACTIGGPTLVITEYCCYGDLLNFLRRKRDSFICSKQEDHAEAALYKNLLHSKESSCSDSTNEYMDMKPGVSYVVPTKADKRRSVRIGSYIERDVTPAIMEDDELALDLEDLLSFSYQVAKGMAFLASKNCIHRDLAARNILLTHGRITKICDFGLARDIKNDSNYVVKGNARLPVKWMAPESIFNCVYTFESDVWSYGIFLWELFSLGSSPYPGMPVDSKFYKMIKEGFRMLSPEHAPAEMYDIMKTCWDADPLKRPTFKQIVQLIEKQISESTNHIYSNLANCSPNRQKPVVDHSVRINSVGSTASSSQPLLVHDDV
T4 sequence (P09619 33-1106): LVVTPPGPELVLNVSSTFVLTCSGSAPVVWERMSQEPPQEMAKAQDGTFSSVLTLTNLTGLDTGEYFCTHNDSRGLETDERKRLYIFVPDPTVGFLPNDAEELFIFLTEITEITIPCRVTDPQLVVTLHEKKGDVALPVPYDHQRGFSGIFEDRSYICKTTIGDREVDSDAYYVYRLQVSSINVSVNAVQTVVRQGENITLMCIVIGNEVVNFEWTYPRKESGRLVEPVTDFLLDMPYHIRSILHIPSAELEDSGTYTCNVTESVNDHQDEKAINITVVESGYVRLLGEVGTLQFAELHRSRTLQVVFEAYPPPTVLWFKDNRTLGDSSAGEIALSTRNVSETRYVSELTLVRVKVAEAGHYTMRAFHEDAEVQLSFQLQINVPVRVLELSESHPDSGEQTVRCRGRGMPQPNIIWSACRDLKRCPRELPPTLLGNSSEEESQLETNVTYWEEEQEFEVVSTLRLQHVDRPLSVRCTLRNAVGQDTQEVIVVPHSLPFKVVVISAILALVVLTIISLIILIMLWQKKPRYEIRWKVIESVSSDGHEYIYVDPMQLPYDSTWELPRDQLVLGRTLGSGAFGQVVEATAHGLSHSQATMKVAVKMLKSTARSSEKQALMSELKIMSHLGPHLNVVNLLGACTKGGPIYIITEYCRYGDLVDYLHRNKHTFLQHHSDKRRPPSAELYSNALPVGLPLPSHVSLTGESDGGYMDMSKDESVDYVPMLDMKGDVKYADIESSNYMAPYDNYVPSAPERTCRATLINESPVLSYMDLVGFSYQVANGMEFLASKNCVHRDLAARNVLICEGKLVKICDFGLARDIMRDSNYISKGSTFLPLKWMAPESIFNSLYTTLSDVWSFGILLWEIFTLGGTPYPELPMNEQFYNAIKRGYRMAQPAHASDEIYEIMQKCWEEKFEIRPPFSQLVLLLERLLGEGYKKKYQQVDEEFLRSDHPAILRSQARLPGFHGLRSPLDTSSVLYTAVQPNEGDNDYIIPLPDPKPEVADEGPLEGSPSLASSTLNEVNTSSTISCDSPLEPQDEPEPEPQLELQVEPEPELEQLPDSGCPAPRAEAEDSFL

IC50 [3, 9] [nM]	Compound	per_control_1000nM FLT3_autoinhibited [1] [percent control]	per_control_10000nM FLT3_autoinhibited [1] [percent control]	per_control_1000nM FLT3(D835V) [2] [percent control]	per_control_10000nM FLT3(D835V) [2] [percent control]	IC50 [3, 8]	CTX normalized_to_DMSO ([4]; DU4475, exp 1, 0.3 µM)	CTX normalized_to_DMSO ([4]; DU4475, exp 1, 1 µM)	CTX normalized_to_DMSO ([4]; DU4475, exp 1, 3 µM)	CTX normalized_to_DMSO ([4]; DU4475, exp 1, 10 µM)	CTX normalized_to_DMSO ([4]; DU4475, exp 1, 30 µM)	IC50 [5] [nM]	IC50 [6] [nM]	anti-proliferative activity in KASUMI-1 cells [7]	IC50 ([3]; mean of n = 3 independent experiments, read-out: MOLM13 IC50 (CellTiter Glo)) [nM]	anti-proliferative activity in MOLM13 cells ([3]; comparison within the compound set)
940	Cn1cc(-c2cc(NC(=O)c3ccc(C(C)(C)C)cc3)n[nH]2)ccc1=O [Compound 3i-1248, 4-(tert-butyl)-N-(5-(1-methyl-6-oxo-1,6-dihydropyridin-3-yl)-1H-pyrazol-3-yl)benzamide]	63	12	1.3	0.7	539 nM and 1580 nM and 702 nM	–	–	–	–	–	–	–	–	–	–
122	COc1ccc(-c2cc(NC(=O)c3ccc(C(C)(C)C)cc3)[nH]n2)cc1 [Compound 3i-1103]	1.8	0.4	0.9	0	93.4 nM and 80.7 nM and 190 nM	1.007	0.9954	0.9628	0.9392	0.7319	–	–	–	–	–
–	CC(C)(C)c1ccc(C(=O)Nc2cc(-c3ccccc3)n[nH]2)cc1 [Compound 3i-1247, 4-(tert-butyl)-N-(3-phenyl-1H-pyrazol-5-yl)benzamide]	1.1	0	2.5	0	38.7 nM and 137 nM and 42.4 nM	–	–	–	–	–	8.5	3.4	superior anti-proliferative activity	72.6	most potent compound overall

Compound	IC50 [3, 9] [nM]	per_control_1000nM FLT3_autoinhibited [1] [percent control]	per_control_10000nM FLT3_autoinhibited [1] [percent control]	per_control_1000nM FLT3(D835V) [2] [percent control]	per_control_10000nM FLT3(D835V) [2] [percent control]	IC50 [3, 8]	CTX normalized_to_DMSO ([4]; DU4475, exp 1, 0.3 µM)	CTX normalized_to_DMSO ([4]; DU4475, exp 1, 1 µM)	CTX normalized_to_DMSO ([4]; DU4475, exp 1, 3 µM)	CTX normalized_to_DMSO ([4]; DU4475, exp 1, 10 µM)	CTX normalized_to_DMSO ([4]; DU4475, exp 1, 30 µM)	IC50 [5] [nM]	IC50 [6] [nM]	anti-proliferative activity in KASUMI-1 cells [7]	IC50 ([3]; mean of n = 3 independent experiments, read-out: MOLM13 IC50 (CellTiter Glo)) [nM]	anti-proliferative activity in MOLM13 cells ([3]; comparison within the compound set)
Cc1cc(-c2cc(NC(=O)c3ccc(C(C)(C)C)cc3)[nH]n2)ccn1 [Compound 3i-1246, 4-(tert-butyl)-N-(3-(2-methylpyridin-4-yl)-1H-pyrazol-5-yl)benzamide]	293	0	1	0.5	0.55	183 nM and 423 nM and 272 nM	–	–	–	–	–	–	–	–	–	–
